From publication PMC12430278, “A Simple and Reliable Method for the Determination of Isorhapontigenin in Murine Biological Matrices: Application in a Tissue Distribution Study” (Molecules, 2025)

Experiment: Stability of stock solutions
Type: physicochemical
Details: DMSO stock solution, stock solution 1.00 mg/mL, n = 6, read-out: Remaining (%, Mean ± SD)
Method: Stock solutions of ISO and trans-stilbene (internal standard, IS) were prepared in DMSO at a final concentration of 1 mg/mL. These solutions were stored at −20 °C and protected from light. The calibration standard and quality control (QC) samples were prepared by serial dilution of the ISO stock solution with pooled blank murine plasma or respective tissue homogenate.
The stability of ISO was evaluated under various storage conditions. Stock solution stability was assessed after storage at room temperature (25 °C) and –20 °C. The stability of ISO in plasma was examined under the following conditions: short-term storage (25 °C for 24 h), long-term storage (–80 °C for 52 days), three freeze–thaw cycles, and post-preparative stability (samples kept in an autosampler at 4 °C for more than 24 h). As it is difficult to evaluate ISO stability directly in tissues, only the short-term stability in tissue homogenates was assessed (6 h on ice). Similarly, post-preparative stability in processed tissue samples was assessed using liver homogenate as a representative, due to the complexity of the hepatic matrix. Stability was considered acceptable if 85–115% of the initial ISO concentration remained.

COc1cc(/C=C/c2cc(O)cc(O)c2)ccc1O [ISO, trans-3,5,4′-trihydroxy-3′-methoxystilbene]
remaining at 24 h, 1 mg/mL (stored at room temperature for 24 h): 94.6 ± 0.7% | remaining at 480 h, 1 mg/mL (stored at −20 °C for 20 days): 105 ± 1.4%
